Data as given in ChEMBL document CHEMBL5038680, “Design, Synthesis, and Evaluation of PD-1/PD-L1 Antagonists Bearing a Benzamide Scaffold” (ACS Med Chem Lett, 2022).
Activity calls are given as the source filed them. No cut-off for these calls is given here.

How the values were obtained:
[1] = target: T1, Programmed cell death protein 1/Programmed cell death 1 ligand 1 (Homo sapiens, UniProt Q15116+Q9NZQ7); experiment: Inhibition of PD-1/PDL-1 (unknown origin) interaction at 1 uM incubated for 15 mins by TR-FRET assay; format: protein-complex assay
T1 sequence (Q15116 whole entry): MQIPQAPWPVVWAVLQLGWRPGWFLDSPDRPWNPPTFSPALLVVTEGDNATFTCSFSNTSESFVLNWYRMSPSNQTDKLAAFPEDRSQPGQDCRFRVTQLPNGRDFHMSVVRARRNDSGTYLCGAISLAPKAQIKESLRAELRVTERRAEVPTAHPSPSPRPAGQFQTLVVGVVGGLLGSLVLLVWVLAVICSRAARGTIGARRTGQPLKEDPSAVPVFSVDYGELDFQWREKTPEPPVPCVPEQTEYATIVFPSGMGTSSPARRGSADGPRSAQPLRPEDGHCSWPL
T1 sequence (Q9NZQ7 whole entry): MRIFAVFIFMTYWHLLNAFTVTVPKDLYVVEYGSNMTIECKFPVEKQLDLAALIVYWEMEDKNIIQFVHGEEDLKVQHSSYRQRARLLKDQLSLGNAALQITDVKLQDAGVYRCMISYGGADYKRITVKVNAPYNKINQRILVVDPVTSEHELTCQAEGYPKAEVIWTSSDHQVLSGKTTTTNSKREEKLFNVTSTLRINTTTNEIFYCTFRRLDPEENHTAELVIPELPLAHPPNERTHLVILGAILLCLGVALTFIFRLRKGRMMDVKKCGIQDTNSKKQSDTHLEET

[2] = target: T1, Programmed cell death protein 1/Programmed cell death 1 ligand 1; experiment: Inhibition of PD-1/PDL-1 (unknown origin) interaction incubated for 15 mins by TR-FRET assay; format: protein-complex assay
MDA-MB-231 [3] = experiment: Cytotoxicity against human MDA-MB-231 cells assessed as cell killing at 2 uM incubated for 24 hrs by LDH assay; format: functional, cell-based
MDA-MB-231 [4] = experiment: Cytotoxicity against human MDA-MB-231 cells assessed as cell killing by PBMC cell activation at 1 uM incubated for 24 hrs by LDH assay; format: functional, cell-based

Row | Compound | inhibition [1] | IC50 [2] | Activity (MDA-MB-231 [3]) | Activity (MDA-MB-231 [4])
1 | COc1ccccc1-c1cccc(C(=O)Nc2ccc(CNCCNC(C)=O)cn2)c1Cl | 5.52% | > 1000 nM |  | 
2 | CC(=O)NCCNCc1ccc(NC(=O)c2cccc(-c3ccc(S(C)(=O)=O)cc3)c2Cl)nc1 | inactive | > 1000 nM |  | 
3 | O=C(Nc1ccc(CN2CC[C@H](C(=O)O)C2)cn1)c1cccc(-c2ccc3c(c2)OCCO3)c1 | inactive | > 1000 nM |  | 
4 | O=C(Nc1ccc(CN2CCC(O)CC2)cn1)c1cccc(-c2ccccc2)c1Cl |  | 460 nM |  | 
5 | CC(=O)NCCNCc1ccc(NC(=O)c2cccc(-c3ccncc3)c2Cl)nc1 | inactive | > 1000 nM |  | 
6 | O=C(Nc1ccc(CN2CC[C@H](C(=O)O)C2)cn1)c1cccc(-c2ccc3c(c2)OCCO3)c1F | inactive | > 1000 nM |  | 
7 | O=C(Nc1ccc(CN2CC(C(=O)O)C2)cn1)c1cccc(-c2ccccc2)c1Cl |  | 645 nM |  | 
8 | CN(C)CCNCc1ccc(NC(=O)c2cccc(-c3ccccc3)c2Cl)nc1 | 27.7% | > 1000 nM |  | 
9 | COc1nc(NC(=O)c2cccc(-c3ccccc3)c2Cl)ccc1CNCCN(C)C | 11.6% | > 1000 nM |  | 
10 | CC(=O)NCCNCc1ccc(NC(=O)c2cccc(-c3ccccc3)c2C)nc1 | 44.2% | > 1000 nM |  | 
11 | COCCOc1cccc(-c2cccc(C(=O)Nc3ccc(CNCCNC(C)=O)cn3)c2Cl)c1 | 5.29% | > 1000 nM |  | 
12 | CC(=O)NCCNCc1ccnc(NC(=O)c2cccc(-c3ccccc3)c2Cl)c1 |  | 894 nM |  | 
13 | COc1ccc(-c2cccc(C(=O)Nc3ccc(CNCCNC(C)=O)cn3)c2Cl)cc1 | 8.37% | > 1000 nM |  | 
14 | CC(=O)NCCNCc1ccc(NC(=O)c2cccc(-c3ccccc3)c2Cl)nc1 |  | 496 nM |  | 
15 | CC(=O)NCCNCc1ccc(NC(=O)c2cccc(-c3ccccc3)c2Cl)nc1F |  | 581 nM |  | 
16 | O=C(Nc1ccc(CNC[C@@H](O)CO)cn1)c1cccc(-c2ccccc2)c1Cl |  | 442 nM |  | 
17 | O=C(Nc1ccc(CN2CCCC[C@H]2C(=O)O)cn1)c1cccc(-c2ccccc2)c1Cl | 41.2% | > 1000 nM |  | 
18 | COC1CN(Cc2ccc(NC(=O)c3cccc(-c4ccccc4)c3Cl)nc2)C1 | 44% | > 1000 nM |  | 
19 | O=C(Nc1ccc(CN2CC[C@H](C(=O)O)C2)cn1)c1cccc(-c2ccc3c(c2)OCCO3)c1Br |  | 46.5 nM |  | 
20 | O=C(Nc1ccc(CNCCO)c(F)n1)c1cccc(-c2ccccc2)c1Cl |  | 429 nM |  | 
21 | COC(=O)C1CN(Cc2ccc(NC(=O)c3cccc(-c4ccccc4)c3Cl)nc2)C1 | 32.5% | > 1000 nM |  | 

Row | Compound | inhibition [1] | IC50 [2] | Activity (MDA-MB-231 [3]) | Activity (MDA-MB-231 [4])
22 | CC(=O)NCCNCc1ccc(NC(=O)c2cccc(-c3cccc(CO)c3)c2Cl)nc1 | 2.5% | > 1000 nM |  | 
23 | COc1ccc(-c2cccc(C(=O)Nc3ccc(CNCCNC(C)=O)cn3)c2Cl)cc1OC |  | > 1000 nM |  | 
24 | CC(=O)NCCNCc1ccc(NC(=O)c2cccc(-c3ccc(F)cc3)c2Cl)nc1 | 6.96% | > 1000 nM |  | 
25 | CC(=O)NCCNCc1ccc(NC(=O)c2cccc(-c3cccc4c3CC[C@@H]4O)c2Cl)nc1 | inactive | > 1000 nM |  | 
26 | CC(=O)NCCNCc1ccc(NC(=O)c2cccc(-c3ccccc3)c2Cl)nc1C(F)(F)F | 33.8% | > 1000 nM |  | 
27 | CC(=O)NCCNCc1ccc(NC(=O)c2cccc(-c3ccc(F)c(F)c3)c2Cl)nc1 | 2.32% | > 1000 nM |  | 
28 | O=C(Nc1ccc(CNCCO)c(C(F)(F)F)n1)c1cccc(-c2ccccc2)c1Cl | 41.5% | > 1000 nM |  | 
29 | COc1cccc(-c2cccc(C(=O)Nc3ccc(CNCCNC(C)=O)cn3)c2Cl)c1 | 46.1% | > 1000 nM |  | 
30 | CC(=O)NCCNCc1ccc(NC(=O)c2cccc(-c3ccccc3)c2Cl)cc1 | 9.86% | > 1000 nM |  | 
31 | O=C(Nc1ccc(CN2CC[C@H](C(=O)O)C2)cn1)c1cccc(-c2ccc3c(c2)OCCO3)c1Cl |  | 16.2 nM | inactive | Active
32 | O=C(Nc1ccc(CN2CC[C@H](C(=O)O)C2)cn1)c1cccc(-c2ccccc2)c1Cl |  | 173 nM |  | 
33 | O=C(Nc1ccc(CN2CC(O)C2)cn1)c1cccc(-c2ccccc2)c1Cl |  | 528 nM |  | 
34 | COc1nc(NC(=O)c2cccc(-c3ccccc3)c2Cl)ccc1CNCCNC(C)=O | 28.2% | > 1000 nM |  | 
35 | O=C(Nc1ccc(CNCCO)cn1)c1cccc(-c2ccccc2)c1Cl |  | 502 nM |  | 
36 | CO[C@H]1CCc2c(-c3cccc(C(=O)Nc4ccc(CNCCNC(C)=O)cn4)c3Cl)cccc21 | 7.75% | > 1000 nM |  | 
37 | COC(=O)[C@H]1CCN(Cc2ccc(NC(=O)c3cccc(-c4ccccc4)c3Cl)nc2)C1 | 50.6% | > 1000 nM |  | 
38 | CC(=O)NCCNCc1ccc(NC(=O)c2cccc(-c3ccc4c(c3)OCCO4)c2Cl)nc1 |  | 284 nM |  | 
39 | COCCNCc1ccc(NC(=O)c2cccc(-c3ccccc3)c2Cl)nc1 |  | 797 nM |  | 
40 | CC(=O)NCCNCc1cccc(NC(=O)c2cccc(-c3ccccc3)c2Cl)n1 | 15.8% | > 1000 nM |  | 
41 | O=C(Nc1ccc(CN2CC[C@@H](O)C2)cn1)c1cccc(-c2ccccc2)c1Cl |  | 373 nM |  | 
42 | CC(=O)NCCNCc1ccc(NC(=O)c2cccc(-c3cc(F)c(F)c(F)c3)c2Cl)nc1 | 3.52% | > 1000 nM |  | 
